From patent publication US8110543B2, “Anti-invasive and anti-angiogenic compositions” (Angstrom Pharmaceuticals, Inc., priority 1997, dated 2012)

Key:
[1] = test system: MDA-MB-231 human breast cancer cells; assay: Matrigel invasion assay, MDA-MB-231 cells; type: cell-based; details: FIG. 7
Method: Several peptides were tested for anti-invasive capacity in a Matrigel® invasion assay system as indicated above (Kleinman et al., supra; Parish et al., supra). Several invasive human tumor lines (PC-3, MDA-MB-231) and non-human tumors (3LL, Mat B-III) were examined. The rat breast cancer line Mat B III and the human prostate cancer line PC-3 were initially used.
Tumor cells (5×10^5/mL, in a volume of 200 μL) in serum-free RPMI 1640 medium were added to a disposable transwell invasion chamber coated with Matrigel® (Becton Dickinson, Lincoln Park, N.J.). The invasion chambers were placed in 24-well tissue culture plates filled with serum-free RPMI-1640 and the plates were placed in an atmosphere of 5% CO2 in humidified air at 37° C. for 48-72 hours. The chambers were then removed, inverted, and the cells which had invaded (and now appeared on the bottom face of the invasion chamber) were fixed and stained using Diff-Quick® (Scientific Products). Cells were counted in 10 different fields on each filter and an average obtained.

[2] = test system: MDA-MB-231 human breast cancer cells; assay: MDA-MB-231 GFP xenograft model; type: in vivo, mice
Method: Nude mice (n=5 per group) were challenged with 2×10^5 tumor cells co-injected into the mammary fat pad of the mice with Matrigel. […] Control animals received vehicle (PBS) only.
These cells were first transfected with green fluorescent protein (GFP) to simplify the detection and visualization of metastases.
The tumor cells (5×10^5) were suspended in 0.1 mL of Matrigel and injected into the mammary fat pad of female BALB/c nu/nu mice. Treatment (75 mg/kg/day) was initiated when the tumors were palpable (10 mm^3, approximately 4 weeks after inoculation of tumor cells) and continued for 5 weeks. Tumor volumes were determined twice per week using caliper measurements. The animals were euthanized at the end of the 5th week of treatment, necropsied and examined for macroscopic metastases. Sections prepared from LNs, lung, liver, spleen and kidney were analyzed for microscopic dissemination of tumor cells using fluorescence microscopy to detect GFP-positive foci.
Macroscopic metastases were enumerated and their size measured with calipers (Table I below). Microscopic dissemination of tumor cells was quantitated by counting GFP-positive foci in representative sections from lung, liver, kidney and spleen.
Macrometastases were determined by excising involved LNs and determining the tumor volume by caliper measurement. Microscopic tumor foci were quantitated by sectioning and fixing target organs, then visualizing GFP-labeled cells using fluorescence microscopy (at 200× enlargement). The number of disseminated tumor foci represents the average of 5 fields per section from 3 different sections per organ.

[3] = test system: U87 tumors; assay: U87 glioblastoma orthotopic model; type: in vivo, mice
Method: U87 cells were inoculated into the ventricles of nude mice and treatment was initiated 72 hrs after inoculation. Tumor volume was determined using caliper measurements after euthanasia and necropsy.
A: Control; B: Å6 only; C: CDDP only; D: Å6+CDDP.
U87 tumors were surgically inoculated into the cerebral ventricles of mice. The animals were allowed to recover for 72 hours at which time treatment with Å6 (75 mg/kg/day IP bid), CDDP (3 mg/kg/day given every other day from day 4×6 administrations), or a combination of Å6+CDDP was initiated,
Animals were treated for 21 days at which time they were euthanized and their brains evaluated for the presence of tumor. Transverse sections were stained with hematoxylin and eosin (H&E).
Tumor sections were also evaluated for microvessel density using antibodies specific for mouse-CD31 in immunostaining. Very few CD31^+ foci were evident in animals treated with the combination of Å6+CDDP.
Tumors were established as in the previous section, and the same therapeutic regimens were employed. Treatment was discontinued at day 21, and survival was measured. Control animals appeared moribund around day 25 and all of the animals in this group were dead by day 30.

[4] = test system: 3LL; assay: 3LL metastasis model, related peptides; set-up: species or system mice; details: mouse, in vivo
Text: This model has been utilized by a number of investigators. See, for example, Gorelik, E. et al., J. Nat'l. Canc. Inst. 65:1257-1264 (1980); Gorelik, E. et al., Rec. Results Canc Res. 75:20-28 (1980); Isakov, N. et al., Invasion Metas. 2:12-32 (1982); Talmadge J. E. et al., J. Nat'l. Canc. Inst. 69:975-980 (1982); Hilgard, P. et al, Br. J. Cancer 35:78-86 (1977)). Test mice are male C57BL/6 mice, 2-3 months old. Following sc, im, or intra-footpad implantation, this tumor produces metastases, preferentially in the lungs. With some lines of the tumor, the primary tumor exerts anti-metastatic effects and must first be excised before study of the metastatic phase (see also U.S. Pat. No. 5,639,725).
Single-cell suspensions are prepared from solid tumors by treating minced tumor tissue with a solution of 0.3% trypsin. Cells are washed 3 times with PBS (pH 7.4) and suspended in PBS. Viability of the 3LL cells prepared in this way is generally about 95-99% (by trypan blue dye exclusion). Viable tumor cells (3×10^4-5×10^6) suspended in 0.05 ml PBS are injected subcutaneously, either in the dorsal region or into one hind foot pad of C57BL/6 mice. Visible tumors appear after 3-4 days after dorsal sc injection of 10^6 cells. The day of tumor appearance and the diameters of established tumors are measured by caliper every two days.
The treatment is given as one or two doses of peptide or derivative, per week. In another embodiment, the peptide is delivered by osmotic minipump.
Lungs are removed and weighed. Lungs are fixed in Bouin's solution and the number of visible metastases is recorded. The diameters of the metastases are also measured using a binocular stereoscope equipped with a micrometer-containing ocular under 8× magnification. On the basis of the recorded diameters, it is possible to calculate the volume of each metastasis. To determine the total volume of metastases per lung, the mean number of visible metastases is multiplied by the mean volume of metastases. To further determine metastatic growth, it is possible to measure incorporation of ^125IdUrd into lung cells (Thakur, M. L. et al., J. Lab. Clin. Med. 89:217-228 (1977). Ten days following tumor amputation, 25 μg of fluorodeoxyuridine is inoculated into the peritoneums of tumor-bearing (and, if used, tumor-resected mice). After 30 min, mice are given 1 μCi of ^125IdUrd (iododeoxyuridine). One day later, lungs and spleens are removed and weighed, and a degree of ^125IdUrd incorporation is measured using a gamma counter.
In addition to Å6, other related peptide compounds described above are tested for efficacy in vivo in the 3LL model (as provided above) as well as the PC-3 model. PC-3 cells transfected with the gene encoding the enzyme chloramphenicol acetyl-transferase (CAT) are inoculated into mice i.v. at doses of 1×10^6 cells per mouse. These mice are implanted with a minipump, as above, which dispenses 100 mg/kg/day of the peptide or vehicle over a period of 14 or 21 days. At termination of treatment, the animals are euthanized and the tumor marker probe is assayed in regional lymph nodes, femurs, lungs, and brain.

[5] = average of 5 fields per section from 3 sections

Ac-KPSSPPEE-NH2 [Å6, CH3CO-Lys-Pro-Ser-Ser-Pro-Pro-Glu-Glu-NH2]
invasion of MDA-MB-231 cells through Matrigel [1]: inhibits the invasion
growth of primary challenge tumors ([2]; IP, 1 mg bid, started when tumor nodules palpable (FIG. 15)): inhibits the growth
Disseminated GFP-positive Tumor Foci, Liver [2, 5]: 3.11 ± 0.14
Disseminated GFP-positive Tumor Foci, Lung [2, 5]: 2.09 ± 0.30
Disseminated GFP-positive Tumor Foci, Spleen [2, 5]: 28.30 ± 2.80
Macroscopic Metastases, Lungs, Number ([2]; end of 5th week of treatment): 1 ± 0
Macroscopic Metastases, Lymph Nodes, Number ([2]; end of 5th week of treatment): 1.2 ± 0.2
Macroscopic Metastases, Lymph Nodes, Size ([2]; end of 5th week of treatment): 7 ± 3 mm^3
single foci versus larger colonies in organ sections ([2]; liver and lungs): greater number of single foci
Factor VIII-positive hot spots in tumor sections ([2]; mouse, in vivo): decrease
TUNEL-positive foci in tumor sections ([2]; mouse, in vivo): significant increase
differentiation of the vessels ([3]; qualitative): fewer branching vessels
microvessel density (CD31+ foci), angiogenesis ([3]; tumor sections, mouse-CD31 immunostaining): inhibited angiogenesis to some extent
metastasis, 3LL model [4]: markedly inhibited
